Common to all, as to test: inhibition of tumour cell growth, NCI panel, 48 h
The test system of test [1] is CCRF-CEM leukemia.
Test [2] deals with OVCAR-5 ovarian.
The test system of test [3] is NCI-H226 lung.
The subject of test [4] is SW-620 colon.
Test [5] concerns T-47D breast.
Test [6] relates to NCI-H460 lung.
The test system of test [7] is COLO 205 colon.
Test [8] has as its system IGROV1 ovarian.
Test [9] deals with UACC-62 melanoma.
Test [10] has as its system MCF7 breast.
Test [11] has as its system 786-0 renal.
Test [12] concerns SR leukemia.
Test [13] deals with OVCAR-3 ovarian.
Test [14] deals with MOLT-4 leukemia.
Test [15] concerns HL-60(TB) leukemia.
Test [16] relates to SK-OV-3 ovarian.
Test [17] relates to RPMI-8226 leukemia.
Test [18] deals with NCI/ADR-RES ovarian.
Test [19] relates to SF-268 CNS.
Test [20] concerns K-562 leukemia.

Molecules are shown by their SMILES.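 Method: 48-hour compound exposure of cells in 96-well plates, five concentrations, linear interpolation of endpoints. TGI: concentration producing complete growth inhibition.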

As to `O=Cc1cc2c(o1)C(=O)c1ccccc1C2=O`, the TGI in test [1] was determined as 6.4 µM; in test [2] it was 3.25 µM; in test [3] it was 2.27 µM; in test [4], 1.02 µM; in [5], 3.94 µM; in test [6], 2.39 µM. Further, the TGI stood at 2.76 µM in [7]; 4.46 µM in test [8]; 3.29 µM in test [9]; 0.581 µM in [10]; 2.9 µM in test [11]; 3.68 µM in [12]. The TGI was 2.11 µM in [13]; 4.56 µM in [14]; 1.15 µM in [15]; 9.57 µM in [16]; over 100 µM in test [17]; 5.54 µM in test [18]. This compound yielded a TGI in test [19] of 4.13 µM.
Consider `CN(N)/N=N/c1nc[nH]c1C(N)=O`, for which the TGI is over 27 µM in test [1]; over 100 µM in test [2]; over 100 µM in [3]; over 100 µM in [4]; over 100 µM in test [5]; over 71.5 µM in [6]. Besides, the TGI in test [7] is over 69.7 µM; in test [8], over 100 µM; in [9], over 100 µM; in [10], over 100 µM; in test [11], over 100 µM; in [12], 2.23 µM. Also, the TGI in test [13] was over 100 µM; in [14] it was 8.05 µM; in [20], over 100 µM; in test [15], 14.6 µM; in test [16], over 100 µM; in test [17], over 100 µM. Moreover, the TGI in test [18] and in test [19] was over 100 µM throughout.
As for `CCc1cc2c(cc1CCCC(=O)O)CC1(Cc3ccc(C(=O)O)cc3C1)C2` (stereo not drawn), the TGI in test [1], in test [2], in test [3], in test [4], in test [5] and in test [6] was over 100 µM each time. The TGI in test [7], in test [8], in test [10], in test [11], in [12] and in test [13] was over 100 µM in each case. Moreover, the TGI in test [14], in test [20], in test [15], in test [16], in test [17] and in [18] was over 100 µM each time. The TGI in [19] was over 100 µM.
For the compound `c1ccc2c(c1)CCN2CCc1c[nH]c2ccccc12`, the TGI in test [1], in [2], in test [3], in test [4], in test [5] and in test [6] was over 10 µM throughout. Further, the TGI in [7], in [8], in test [9], in test [10], in test [11] and in test [12] was over 10 µM each time. Also, the TGI in test [13], in test [14], in test [20], in test [15], in test [16] and in [17] was over 10 µM each time. The TGI in test [18] and in [19] was over 10 µM throughout.
For the compound `N=c1oc2ccc(Cl)cc2cc1C(=O)Nc1ccccc1`, the TGI is over 100 µM in [1]; over 100 µM in test [2]; over 100 µM in test [3]; over 100 µM in test [4]; over 44.8 µM in test [5]; over 100 µM in test [6]. The TGI in test [7], in test [8], in [9], in [10], in test [11] and in test [12] was over 100 µM in each case. In addition, the TGI is over 100 µM in test [13]; over 100 µM in test [14]; over 100 µM in [20]; over 100 µM in test [15]; over 70.2 µM in test [16]; over 100 µM in [17]. Besides, the TGI in test [18] and in test [19] was over 100 µM in each case.
Consider `NCCCc1ccc2oc3ccccc3c2c1`, for which the TGI is 32.6 µM in [1]; 26.2 µM in test [2]; 35.5 µM in [3]; 50.3 µM in [4]; 33.7 µM in [5]; 34.1 µM in test [6]. Besides, the TGI is 32.8 µM in test [7]; 43.7 µM in [8]; 31.9 µM in test [9]; 34.2 µM in [10]; 28.3 µM in test [11]; 52.2 µM in test [12]. The TGI in [13] stood at 31.5 µM; in test [14], 30.5 µM; in [20] it was 69.4 µM; in [15], 31.2 µM; in test [16], 31.3 µM; in test [17] it was 70.7 µM. In addition, the TGI in [18] is 46.3 µM; in test [19], 39.1 µM.
For the compound `CCOC(=O)C1(Cc2c[nH]c3ccccc23)C(O)CCCN1C(C)=O` (stereo not drawn), the TGI in [1], in test [2], in test [3], in test [4], in [5] and in [6] was over 100 µM throughout. The TGI in test [7], in test [8], in [9], in test [10], in [11] and in test [12] was over 100 µM each time. Moreover, the TGI in test [13], in [14], in test [20], in [15], in [16] and in test [17] was over 100 µM throughout. The TGI in [18] and in [19] was over 100 µM throughout.

The values are drawn from PubChem BioAssay (NCI).
